Common to all, as to assay: cell-based
The target in experiment [1] is T1, Kv1.1 (Homo sapiens, UniProt Q09470).
T1 construct: expressed in transfected cells; host or cells: Chinese Hamster Ovary (CHO)
The note with it: for IC50: CHO cells, whole-cell patch clamp, read-out: Potency IC50 (nM) Kv1.1; for Selectivity Kv1.1/Kv1.3: ratio IC50[Kv1.1]/IC50[Kv1.3]. For orientation: The patch-clamp technique gives a direct electrical read-out from membranes.

Experiment [2] addresses T2, Kv1.2 (Homo sapiens, UniProt P16389).
T2 construct: expressed in transfected cells; host or cells: Chinese Hamster Ovary (CHO)
The note with it: CHO cells, whole-cell patch clamp; read-out: Potency IC50 (nM) Kv1.2.

In experiment [3] the target is T3, human Kv1.3 voltage-gated K+ channel (Homo sapiens, UniProt P22001).
T3 construct: host or cells: CHO-DUKX
T3 sequence (P22001 whole entry): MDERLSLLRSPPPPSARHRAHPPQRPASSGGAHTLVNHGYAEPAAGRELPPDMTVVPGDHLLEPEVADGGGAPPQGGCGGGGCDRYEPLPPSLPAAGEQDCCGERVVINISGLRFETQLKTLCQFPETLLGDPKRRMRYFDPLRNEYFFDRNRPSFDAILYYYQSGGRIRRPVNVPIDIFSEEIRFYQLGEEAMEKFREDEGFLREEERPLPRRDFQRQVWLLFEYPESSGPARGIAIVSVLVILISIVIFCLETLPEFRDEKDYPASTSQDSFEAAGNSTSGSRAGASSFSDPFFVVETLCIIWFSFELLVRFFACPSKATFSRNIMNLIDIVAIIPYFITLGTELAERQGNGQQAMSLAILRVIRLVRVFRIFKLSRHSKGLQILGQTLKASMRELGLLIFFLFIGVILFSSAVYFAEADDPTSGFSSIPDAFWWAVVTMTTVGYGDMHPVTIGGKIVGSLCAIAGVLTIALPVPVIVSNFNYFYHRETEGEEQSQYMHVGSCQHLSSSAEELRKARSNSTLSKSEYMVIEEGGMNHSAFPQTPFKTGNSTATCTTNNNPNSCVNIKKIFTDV
The note with it: inhibition of thallium flux, CHO-DUKX cells with human Kv1.3; read-out: IC50.

Experiment [4] addresses T4, Kv1.6 (Homo sapiens, UniProt P17658).
T4 construct: expressed in transfected cells; host or cells: Chinese Hamster Ovary (CHO)
Particulars: for IC50: CHO cells, whole-cell patch clamp, read-out: Potency IC50 (nM) Kv1.6; for Selectivity Kv1.6/Kv1.3: ratio IC50[Kv1.6]/IC50[Kv1.3].

Experiment [5] has as its target T5, Kv1.3 (Homo sapiens, UniProt P22001).
T5 construct: expressed in transfected cells; host or cells: Chinese Hamster Ovary (CHO)
The note with it: CHO cells, whole-cell patch clamp; read-out: Potency IC50 (nM) Kv1.3.

This is an account of results in patent publication US11780893B2, “Kv1.3 blockers” (Zealand Pharma A/S, priority 2019, dated 2023).

Bridge positions count the residues as written; N and C are the ends. Square brackets hold non-standard residues; d marks the D form. Peptide text beside a SMILES is read from it. Nle = CCCC[C@H](N)C(=O)O

T4 sequence (P17658 whole entry): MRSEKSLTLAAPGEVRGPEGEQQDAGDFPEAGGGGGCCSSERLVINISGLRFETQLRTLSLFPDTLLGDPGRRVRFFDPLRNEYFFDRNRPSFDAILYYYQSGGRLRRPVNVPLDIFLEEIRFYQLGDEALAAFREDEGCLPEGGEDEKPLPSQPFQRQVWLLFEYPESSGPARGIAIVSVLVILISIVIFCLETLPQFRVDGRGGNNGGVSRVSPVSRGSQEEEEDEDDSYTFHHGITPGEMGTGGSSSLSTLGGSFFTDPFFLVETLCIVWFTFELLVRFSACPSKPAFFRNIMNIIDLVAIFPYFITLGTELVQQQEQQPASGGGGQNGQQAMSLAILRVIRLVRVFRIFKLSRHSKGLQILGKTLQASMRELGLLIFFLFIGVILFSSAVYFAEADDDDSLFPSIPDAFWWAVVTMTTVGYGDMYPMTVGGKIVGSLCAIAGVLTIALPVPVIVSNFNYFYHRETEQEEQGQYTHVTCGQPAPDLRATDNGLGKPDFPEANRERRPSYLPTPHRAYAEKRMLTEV
T5 sequence (P22001 whole entry): as the sequence (P22001 whole entry) above
T1 sequence (Q09470 whole entry): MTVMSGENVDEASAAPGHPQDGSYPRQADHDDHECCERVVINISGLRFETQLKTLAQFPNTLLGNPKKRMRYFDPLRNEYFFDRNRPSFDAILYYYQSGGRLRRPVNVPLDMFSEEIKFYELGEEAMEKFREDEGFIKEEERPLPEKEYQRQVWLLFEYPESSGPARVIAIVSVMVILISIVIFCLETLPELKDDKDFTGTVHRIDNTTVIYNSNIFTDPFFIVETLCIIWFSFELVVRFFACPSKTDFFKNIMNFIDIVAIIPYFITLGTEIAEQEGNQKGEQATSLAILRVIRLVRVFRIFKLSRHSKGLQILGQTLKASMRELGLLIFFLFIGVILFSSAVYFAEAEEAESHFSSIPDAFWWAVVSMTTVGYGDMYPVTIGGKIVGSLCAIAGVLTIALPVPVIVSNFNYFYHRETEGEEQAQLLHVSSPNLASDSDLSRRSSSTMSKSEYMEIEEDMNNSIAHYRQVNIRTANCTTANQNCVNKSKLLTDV
T2 sequence (P16389 whole entry): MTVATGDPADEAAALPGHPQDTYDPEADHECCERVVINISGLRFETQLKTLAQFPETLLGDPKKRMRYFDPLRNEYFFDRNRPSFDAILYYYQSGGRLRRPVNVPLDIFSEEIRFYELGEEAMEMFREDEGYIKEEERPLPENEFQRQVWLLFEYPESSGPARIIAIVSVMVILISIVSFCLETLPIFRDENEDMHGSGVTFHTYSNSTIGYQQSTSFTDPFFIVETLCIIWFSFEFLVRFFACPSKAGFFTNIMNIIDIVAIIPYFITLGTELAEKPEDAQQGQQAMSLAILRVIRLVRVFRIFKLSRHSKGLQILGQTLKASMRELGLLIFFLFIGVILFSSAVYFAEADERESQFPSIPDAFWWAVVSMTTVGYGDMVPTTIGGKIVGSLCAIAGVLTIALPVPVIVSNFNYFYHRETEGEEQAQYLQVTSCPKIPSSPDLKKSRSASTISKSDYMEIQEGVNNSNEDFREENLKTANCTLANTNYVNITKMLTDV

One may read the IC50 as the concentration that gives 50% inhibition. For the compound `CC[C@H](C)[C@@H]1NC(=O)[C@H](C)NC(=O)[C@H](CCCCN)NC(=O)[C@H](CC(C)C)NC(=O)[C@@H]2CSSC[C@@H](C(=O)N[C@@H](Cc3ccc(O)cc3)C(=O)N3CCC[C@H]3C(=O)N[C@@H](CCCNC(=N)N)C(N)=O)NC(=O)[C@H](CCCCN)NC(=O)[C@@H]3CSSC[C@H](NC(=O)[C@H](CCC(=O)O)NC(=O)[C@H](C(C)C)NC(=O)[C@H](CO)NC(=O)[C@H](C)NC(=O)[C@H](CO)NC(=O)[C@@H](NC(=O)[C@H](CCCNC(=N)N)NC(=O)[C@H](CCSC)NC(=O)[C@H](CC(=O)O)NC(=O)[C@H](CCSC)NC(=O)[C@@H](N)CC(N)=O)CSSC[C@H](NC(=O)[C@H](CCCCN)NC(=O)CNC(=O)[C@H](Cc4ccccc4)NC(=O)[C@H](CCCCN)NC(=O)[C@H](CO)NC(=O)CNC1=O)C(=O)N[C@@H](CCSC)C(=O)N[C@@H](CC(N)=O)C(=O)N[C@@H](CCCCN)C(=O)N[C@@H](CCCCN)C(=O)N3)C(=O)N[C@@H](CCCCN)C(=O)N[C@@H](CCC(N)=O)C(=O)N[C@@H](CCCCN)C(=O)N2` [Compound 34] (H-NMDMRCSASVECKQKCLKAIGSKFGKCMNKKCKCYPR-NH2; disulfide 6-27, 12-32, 16-34), the IC50 in experiment [1] was above 3000 nM; in experiment [2] it was 100 nM; in experiment [3], 0.11 nM; in experiment [4] it was 207 nM; in experiment [5], 0.42 nM. In addition, in experiment [1], the “Selectivity Kv1.1/Kv1.3” value is recorded as above 7100.
Turning to `CC[C@H](C)[C@@H]1NC(=O)[C@H](C)NC(=O)[C@H](CCCCN)NC(=O)[C@H](CC(C)C)NC(=O)[C@@H]2CSSC[C@@H](C(=O)N[C@@H](Cc3ccc(O)cc3)C(=O)N3CCC[C@H]3C(=O)N[C@@H](CCCNC(=N)N)C(N)=O)NC(=O)[C@H](CCCCN)NC(=O)[C@@H]3CSSC[C@H](NC(=O)[C@H](CCC(=O)O)NC(=O)[C@H](C(C)C)NC(=O)[C@H](CO)NC(=O)[C@H](C)NC(=O)[C@H](CO)NC(=O)[C@@H](NC(=O)[C@H](CCCNC(=N)N)NC(=O)[C@H](CCSC)NC(=O)[C@H](CC(=O)O)NC(=O)[C@H](CCSC)NC(=O)[C@@H](N)CC(N)=O)CSSC[C@H](NC(=O)[C@H](CCCCN)NC(=O)CNC(=O)[C@H](Cc4ccccc4)NC(=O)[C@H]([C@@H](C)CC)NC(=O)[C@H](CO)NC(=O)[C@H](CCC(=O)O)NC1=O)C(=O)N[C@@H](CCSC)C(=O)N[C@@H](CC(N)=O)C(=O)N[C@@H](CCCCN)C(=O)N[C@@H](CCCCN)C(=O)N3)C(=O)N[C@@H](CCCCN)C(=O)N[C@@H](CCC(N)=O)C(=O)N[C@@H](CCCCN)C(=O)N2` [Compound 22] (H-NMDMRCSASVECKQKCLKAIESIFGKCMNKKCKCYPR-NH2; disulfide 6-27, 12-32, 16-34), the IC50 in experiment [1] is above 3000 nM; in experiment [2] it was 181 nM; in experiment [3] it was 0.11 nM; in experiment [4] it was above 3000 nM; in experiment [5] it was 0.29 nM. In addition, in experiment [1], the “Selectivity Kv1.1/Kv1.3” value is above 10200. In addition, the “Selectivity Kv1.6/Kv1.3” value in experiment [4] was above 10200.
`CC[C@H](C)[C@@H]1NC(=O)[C@H](C)NC(=O)[C@H](CCCCN)NC(=O)[C@H](CC(C)C)NC(=O)[C@@H]2CSSC[C@@H](C(=O)N[C@@H](Cc3ccc(O)cc3)C(=O)N3CCC[C@H]3C(=O)N[C@@H](CCCNC(=N)N)C(=O)O)NC(=O)[C@H](CCCCN)NC(=O)[C@@H]3CSSC[C@H](NC(=O)[C@H](CCC(=O)O)NC(=O)[C@H](C(C)C)NC(=O)[C@H](CO)NC(=O)[C@H](C)NC(=O)[C@H](CO)NC(=O)[C@@H](NC(=O)[C@H](CCCNC(=N)N)NC(=O)[C@H](CCSC)NC(=O)[C@H](CCC(=O)O)NC(=O)[C@H](CCSC)NC(=O)[C@@H](N)CC(N)=O)CSSC[C@H](NC(=O)[C@H](CCCCN)NC(=O)CNC(=O)[C@H](Cc4ccccc4)NC(=O)[C@H]([C@@H](C)CC)NC(=O)[C@H](CO)NC(=O)CNC1=O)C(=O)N[C@@H](CCSC)C(=O)N[C@@H](CC(N)=O)C(=O)N[C@@H](CCCCN)C(=O)N[C@@H](CCCCN)C(=O)N3)C(=O)N[C@@H](CCCCN)C(=O)N[C@@H](CCC(N)=O)C(=O)N[C@@H](CCCCN)C(=O)N2` [Compound 12] (H-NMEMRCSASVECKQKCLKAIGSIFGKCMNKKCKCYPR-OH; disulfide 6-27, 12-32, 16-34): the IC50 was above 3000 nM in experiment [1]; 228 nM in experiment [2]; 0.23 nM in experiment [3]; above 3000 nM in experiment [4]; 0.11 nM in experiment [5]. In experiment [1], the “Selectivity Kv1.1/Kv1.3” value is above 27600. In addition, the “Selectivity Kv1.6/Kv1.3” value in experiment [4] was above 27600.
`CC[C@H](C)[C@@H]1NC(=O)[C@H](C)NC(=O)[C@H](CC(C)C)NC(=O)[C@@H]2CSSC[C@@H](C(=O)N[C@@H](Cc3ccc(O)cc3)C(=O)N3CCC[C@H]3C(=O)N[C@@H](CCCNC(=N)N)C(N)=O)NC(=O)[C@H](CCCCN)NC(=O)[C@@H]3CSSC[C@H](NC(=O)[C@H](CCC(=O)O)NC(=O)[C@H](C(C)C)NC(=O)[C@H](CO)NC(=O)[C@H](C)NC(=O)[C@H](CO)NC(=O)[C@@H](NC(=O)[C@H](CCCNC(=N)N)NC(=O)[C@H](CCSC)NC(=O)[C@H](CC(=O)O)NC(=O)[C@H](CCSC)NC(=O)[C@@H](N)CC(N)=O)CSSC[C@H](NC(=O)[C@H](CCCCN)NC(=O)CNC(=O)[C@H](Cc4ccccc4)NC(=O)[C@H]([C@@H](C)CC)NC(=O)[C@H](CO)NC(=O)CNC1=O)C(=O)N[C@@H](CCSC)C(=O)N[C@@H](CC(N)=O)C(=O)N[C@@H](CCCCN)C(=O)N[C@@H](CCCCN)C(=O)N3)C(=O)N[C@@H](CCCCN)C(=O)N[C@@H](CCC(N)=O)C(=O)N[C@@H](CCCCN)C(=O)N2` [Compound 54] (H-NMDMRCSASVECKQKCLAIGSIFGKCMNKKCKCYPR-NH2; disulfide 6-26, 12-31, 16-33): the IC50 in experiment [1] was above 3000 nM; in experiment [2], 291 nM; in experiment [3] it was 0.46 nM; in experiment [4], above 3000 nM; in experiment [5] it was 2.41 nM. In addition, the “Selectivity Kv1.1/Kv1.3” value in experiment [1] is above 1200. In addition, the “Selectivity Kv1.6/Kv1.3” value in experiment [4] is above 1200.
On to `CCCC[C@@H]1NC(=O)[C@@H]2CSSC[C@H](NC(=O)[C@H](CCCNC(=N)N)NC(=O)[C@H](CCCC)NC(=O)[C@H](CC(=O)O)NC(=O)[C@H](CCCC)NC(=O)[C@@H](N)CC(N)=O)C(=O)N[C@@H](CO)C(=O)N[C@@H](C)C(=O)N[C@@H](CO)C(=O)N[C@@H](C(C)C)C(=O)N[C@@H](CCC(=O)O)C(=O)N[C@H]3CSSC[C@H](NC(=O)[C@H](CCCCN)NC(=O)[C@H](CCCCN)NC(=O)[C@H](CC(N)=O)NC1=O)C(=O)N[C@@H](CCCCN)C(=O)N[C@H](C(=O)N[C@@H](Cc1ccc(O)cc1)C(=O)N1CCC[C@H]1C(=O)N[C@@H](CCCNC(=N)N)C(N)=O)CSSC[C@H](NC(=O)[C@H](CCCCN)NC(=O)[C@H](CCC(N)=O)NC(=O)[C@H](CCCCN)NC3=O)C(=O)N[C@@H](CC(C)C)C(=O)N[C@@H](CCCCN)C(=O)N[C@@H](C)C(=O)N[C@@H]([C@@H](C)CC)C(=O)NCC(=O)N[C@@H](CO)C(=O)N[C@@H]([C@@H](C)CC)C(=O)N[C@@H](Cc1ccccc1)C(=O)NCC(=O)N[C@@H](CCCCN)C(=O)N2` [Compound 40] (H-N[Nle]D[Nle]RCSASVECKQKCLKAIGSIFGKC[Nle]NKKCKCYPR-NH2; disulfide 6-27, 12-32, 16-34), for which the IC50 is above 3000 nM in experiment [1]; 113 nM in experiment [2]; 0.1 nM in experiment [3]; 1830 nM in experiment [4]; 0.26 nM in experiment [5]. Also, the “Selectivity Kv1.1/Kv1.3” value in experiment [1] was above 11600.
As to `CC[C@H](C)[C@@H]1NC(=O)[C@H](C)NC(=O)[C@H](CCCCN)NC(=O)[C@H](CC(C)C)NC(=O)[C@@H]2CSSC[C@@H](C(=O)N[C@@H](Cc3ccc(O)cc3)C(=O)N3CCC[C@H]3C(=O)N[C@@H](CCCNC(=N)N)C(N)=O)NC(=O)[C@H](CCCCN)NC(=O)[C@@H]3CSSC[C@H](NC(=O)[C@H](CCC(=O)O)NC(=O)[C@H](C(C)C)NC(=O)[C@H](CO)NC(=O)[C@H](C)NC(=O)[C@H](CO)NC(=O)[C@@H](NC(=O)[C@H](CCCNC(=N)N)NC(=O)[C@H](CCSC)NC(=O)[C@H](CC(=O)O)NC(=O)[C@H](CCSC)NC(=O)[C@@H](N)CC(N)=O)CSSC[C@H](NC(=O)[C@H](CCCCN)NC(=O)CNC(=O)[C@H](Cc4ccccc4)NC(=O)[C@H]([C@@H](C)CC)NC(=O)[C@H](CO)NC(=O)CNC1=O)C(=O)N[C@@H](CCSC)C(=O)N[C@@H](CC(N)=O)C(=O)N[C@@H](CCCCN)C(=O)N[C@@H](CCCCN)C(=O)N3)C(=O)N[C@@H](CCCCN)C(=O)N[C@@H](CCC(N)=O)C(=O)N[C@@H](CC(C)C)C(=O)N2` [Compound 18] (H-NMDMRCSASVECKQLCLKAIGSIFGKCMNKKCKCYPR-NH2; disulfide 6-27, 12-32, 16-34), the IC50 was above 3000 nM in experiment [1]; 256 nM in experiment [2]; 0.19 nM in experiment [3]; above 3000 nM in experiment [4]; 0.24 nM in experiment [5]. Further, the “Selectivity Kv1.1/Kv1.3” value in experiment [1] was above 12700. The “Selectivity Kv1.6/Kv1.3” value in experiment [4] was above 12700.
